{"source": "PubChem BioAssay (NCI)", "test_in_all_cases": "inhibition of tumour cell growth, NCI panel, 48 h", "key": {"DMS 114 small cell lung": {"system": "DMS 114 small cell lung"}, "DMS 273 small cell lung": {"system": "DMS 273 small cell lung"}, "HCC-2998 colon": {"system": "HCC-2998 colon"}, "KM20L2 colon": {"system": "KM20L2 colon"}, "MOLT-4 leukemia": {"system": "MOLT-4 leukemia"}, "SF-539 CNS": {"system": "SF-539 CNS"}, "SW-620 colon": {"system": "SW-620 colon"}, "XF 498 CNS": {"system": "XF 498 CNS"}, "DU-145 prostate": {"system": "DU-145 prostate"}, "HS 578T breast": {"system": "HS 578T breast"}}, "note": "Values joined by “and” are separate entries in the source; they are usually repeats but may differ in a detail not shown here. Equal values may be shown once.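 Step 1: Grow cells in 96-well plates. Step 2: Expose to compound for 48 hours at 5 concentrations. Step 3: Interpolate endpoints linearly; if unreached, use highest concentration. The concentration for 50% growth inhibition is given as GI50. TGI: concentration producing complete growth inhibition.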", "data": [{"molecule": "COC(=O)/C(=N/NC(N)=O)C(C(=O)OC)C(=O)C(=O)Nc1ccc(Cl)cc1", "note": "(centres undefined)", "values": [{"measurement": "TGI", "setting": "DMS 114 small cell lung", "value": "> 100", "unit": "µM"}, {"measurement": "TGI", "setting": "DMS 273 small cell lung", "value": "> 100", "unit": "µM"}, {"measurement": "TGI", "setting": "HCC-2998 colon", "value": "> 100", "unit": "µM"}, {"measurement": "TGI", "setting": "KM20L2 colon", "value": "> 100", "unit": "µM"}, {"measurement": "TGI", "setting": "MOLT-4 leukemia", "value": "> 100", "unit": "µM"}, {"measurement": "TGI", "setting": "SF-539 CNS", "value": "> 100", "unit": "µM"}, {"measurement": "TGI", "setting": "SW-620 colon", "value": "> 100", "unit": "µM"}, {"measurement": "TGI", "setting": "XF 498 CNS", "value": "> 100", "unit": "µM"}]}, {"molecule": "COc1cc(/C=C(\\C#N)C(N)=C(C#N)C#N)cc(O)c1O", "values": [{"measurement": "TGI", "setting": "DMS 114 small cell lung", "value": "> 100", "unit": "µM"}, {"measurement": "TGI", "setting": "DMS 273 small cell lung", "value": "> 100", "unit": "µM"}, {"measurement": "TGI", "setting": "DU-145 prostate", "value": "> 100", "unit": "µM"}, {"measurement": "TGI", "setting": "HCC-2998 colon", "value": "> 100", "unit": "µM"}, {"measurement": "TGI", "setting": "HS 578T breast", "value": "> 100", "unit": "µM"}, {"measurement": "TGI", "setting": "KM20L2 colon", "value": "> 100", "unit": "µM"}, {"measurement": "TGI", "setting": "MOLT-4 leukemia", "value": "> 100", "unit": "µM"}, {"measurement": "TGI", "setting": "SF-539 CNS", "value": "> 100", "unit": "µM"}, {"measurement": "TGI", "setting": "SW-620 colon", "value": "> 100", "unit": "µM"}, {"measurement": "TGI", "setting": "XF 498 CNS", "value": "> 100", "unit": "µM"}]}, {"molecule": "CCOC(=O)C1COc2cc(-c3cc(=O)c4ccccc4o3)ccc2O1", "note": "(centres undefined)", "values": [{"measurement": "TGI", "setting": "DMS 114 small cell lung", "value": "> 100", "unit": "µM"}, {"measurement": "TGI", "setting": "DMS 273 small cell lung", "value": "> 100", "unit": "µM"}, {"measurement": "TGI", "setting": "HCC-2998 colon", "value": "> 100", "unit": "µM"}, {"measurement": "TGI", "setting": "KM20L2 colon", "value": "> 100", "unit": "µM"}, {"measurement": "TGI", "setting": "MOLT-4 leukemia", "value": "> 100", "unit": "µM"}, {"measurement": "TGI", "setting": "SF-539 CNS", "value": 96.3, "unit": "µM"}, {"measurement": "TGI", "setting": "SW-620 colon", "value": "> 100", "unit": "µM"}, {"measurement": "TGI", "setting": "XF 498 CNS", "value": 96.9, "unit": "µM"}]}, {"molecule": "S=c1nc(-c2ccnc(-c3nc(=S)[nH][nH]3)c2)[nH][nH]1", "values": [{"measurement": "TGI", "setting": "DMS 114 small cell lung", "value": "> 100", "unit": "µM"}, {"measurement": "TGI", "setting": "DMS 273 small cell lung", "value": "> 100", "unit": "µM"}, {"measurement": "TGI", "setting": "HCC-2998 colon", "value": "> 100", "unit": "µM"}, {"measurement": "TGI", "setting": "KM20L2 colon", "value": "> 100", "unit": "µM"}, {"measurement": "TGI", "setting": "MOLT-4 leukemia", "value": "> 100", "unit": "µM"}, {"measurement": "TGI", "setting": "SF-539 CNS", "value": "> 100", "unit": "µM"}, {"measurement": "TGI", "setting": "SW-620 colon", "value": "> 100", "unit": "µM"}, {"measurement": "TGI", "setting": "XF 498 CNS", "value": "> 100", "unit": "µM"}]}, {"molecule": "COc1ccc(CCc2cc(OC)c(OC)c(OC)c2)cc1", "values": [{"measurement": "TGI", "setting": "DMS 114 small cell lung", "value": 0.323, "unit": "µM"}, {"measurement": "TGI", "setting": "DMS 273 small cell lung", "value": 1.43, "unit": "µM"}, {"measurement": "TGI", "setting": "DU-145 prostate", "value": 5.62, "unit": "µM"}, {"measurement": "TGI", "setting": "HCC-2998 colon", "value": 2.82, "unit": "µM"}, {"measurement": "TGI", "setting": "HS 578T breast", "value": "> 100", "unit": "µM"}, {"measurement": "TGI", "setting": "KM20L2 colon", "value": 0.049, "unit": "µM"}, {"measurement": "TGI", "setting": "MOLT-4 leukemia", "value": 6.26, "unit": "µM"}, {"measurement": "TGI", "setting": "SF-539 CNS", "value": 0.146, "unit": "µM"}, {"measurement": "TGI", "setting": "SW-620 colon", "value": "> 100", "unit": "µM"}, {"measurement": "TGI", "setting": "XF 498 CNS", "value": 20.6, "unit": "µM"}]}, {"molecule": "COc1cc2cc3c4c(cc(OC)c(OC)c4c2cc1OC)CCN3C(=O)CCC(=O)NCCCN(C)C", "values": [{"measurement": "TGI", "setting": "DMS 114 small cell lung", "value": "> 100", "unit": "µM"}, {"measurement": "TGI", "setting": "DMS 273 small cell lung", "value": "> 100", "unit": "µM"}, {"measurement": "TGI", "setting": "HCC-2998 colon", "value": "> 100", "unit": "µM"}, {"measurement": "TGI", "setting": "KM20L2 colon", "value": 67, "unit": "µM"}, {"measurement": "TGI", "setting": "MOLT-4 leukemia", "value": "> 100", "unit": "µM"}, {"measurement": "TGI", "setting": "SF-539 CNS", "value": 59.3, "unit": "µM"}, {"measurement": "TGI", "setting": "SW-620 colon", "value": "> 100", "unit": "µM"}, {"measurement": "TGI", "setting": "XF 498 CNS", "value": "> 100", "unit": "µM"}]}, {"molecule": "CCOc1ccc(C(CN2CCOCC2)C(C)=O)cc1OC", "note": "(centres undefined)", "values": [{"measurement": "TGI", "setting": "DMS 114 small cell lung", "value": 34, "unit": "µM"}, {"measurement": "TGI", "setting": "DMS 273 small cell lung", "value": 23.3, "unit": "µM"}, {"measurement": "TGI", "setting": "HCC-2998 colon", "value": 32.3, "unit": "µM"}, {"measurement": "TGI", "setting": "KM20L2 colon", "value": 35, "unit": "µM"}, {"measurement": "TGI", "setting": "MOLT-4 leukemia", "value": "> 100", "unit": "µM"}, {"measurement": "TGI", "setting": "SF-539 CNS", "value": 32.8, "unit": "µM"}, {"measurement": "TGI", "setting": "SW-620 colon", "value": 31.2, "unit": "µM"}, {"measurement": "TGI", "setting": "XF 498 CNS", "value": 40.8, "unit": "µM"}]}, {"molecule": "O=C1c2ccccc2C(=O)c2nc3ccc(Cl)cc3cc21", "values": [{"measurement": "TGI", "setting": "DMS 114 small cell lung", "value": "> 100", "unit": "µM"}, {"measurement": "TGI", "setting": "DMS 273 small cell lung", "value": "> 100", "unit": "µM"}, {"measurement": "TGI", "setting": "HCC-2998 colon", "value": "> 100", "unit": "µM"}, {"measurement": "TGI", "setting": "KM20L2 colon", "value": "> 100", "unit": "µM"}, {"measurement": "TGI", "setting": "MOLT-4 leukemia", "value": "> 100", "unit": "µM"}, {"measurement": "TGI", "setting": "SF-539 CNS", "value": "> 100", "unit": "µM"}, {"measurement": "TGI", "setting": "SW-620 colon", "value": "> 100", "unit": "µM"}, {"measurement": "TGI", "setting": "XF 498 CNS", "value": "> 100", "unit": "µM"}]}, {"molecule": "COC(=O)CC(C(C(C)=O)C(=O)OCc1ccccc1)N1C(=O)OCC1c1ccccc1", "note": "(centres undefined)", "values": [{"measurement": "TGI", "setting": "DMS 114 small cell lung", "value": "> 100", "unit": "µM"}, {"measurement": "TGI", "setting": "DMS 273 small cell lung", "value": "> 100", "unit": "µM"}, {"measurement": "TGI", "setting": "HCC-2998 colon", "value": "> 100", "unit": "µM"}, {"measurement": "TGI", "setting": "KM20L2 colon", "value": "> 100", "unit": "µM"}, {"measurement": "TGI", "setting": "MOLT-4 leukemia", "value": "> 100", "unit": "µM"}, {"measurement": "TGI", "setting": "SF-539 CNS", "value": "> 100", "unit": "µM"}, {"measurement": "TGI", "setting": "SW-620 colon", "value": "> 100", "unit": "µM"}, {"measurement": "TGI", "setting": "XF 498 CNS", "value": "> 100", "unit": "µM"}]}, {"molecule": "Nc1ccc(S(=O)(=O)Nc2cnc3c(Cl)cccc3n2)cc1", "values": [{"measurement": "TGI", "setting": "DMS 114 small cell lung", "value": 202, "unit": "µM"}, {"measurement": "TGI", "setting": "DMS 273 small cell lung", "value": 467, "unit": "µM"}, {"measurement": "TGI", "setting": "DU-145 prostate", "value": "> 750", "unit": "µM"}, {"measurement": "GI50", "setting": "HCC-2998 colon", "value": 149, "unit": "µM"}, {"measurement": "TGI", "setting": "HCC-2998 colon", "value": "> 663", "unit": "µM"}, {"measurement": "GI50", "setting": "HS 578T breast", "value": 16.3, "unit": "µM"}, {"measurement": "TGI", "setting": "HS 578T breast", "value": "> 79.5 µM and 504 µM"}, {"measurement": "TGI", "setting": "KM20L2 colon", "value": "> 750", "unit": "µM"}, {"measurement": "GI50", "setting": "MOLT-4 leukemia", "value": 65.6, "unit": "µM"}, {"measurement": "TGI", "setting": "MOLT-4 leukemia", "value": 565, "unit": "µM"}, {"measurement": "GI50", "setting": "SF-539 CNS", "value": "> 94.6", "unit": "µM"}, {"measurement": "TGI", "setting": "SF-539 CNS", "value": 513, "unit": "µM"}, {"measurement": "GI50", "setting": "SW-620 colon", "value": 52.3, "unit": "µM"}, {"measurement": "TGI", "setting": "SW-620 colon", "value": "> 678", "unit": "µM"}, {"measurement": "TGI", "setting": "XF 498 CNS", "value": 719, "unit": "µM"}]}, {"molecule": "C[C@]12CC[C@H](OC3CCCCO3)CC1=CC[C@@H]1C2CC[C@]2(C)/C(=N/O)CCC12", "note": "(some centres undefined)", "values": [{"measurement": "TGI", "setting": "DMS 114 small cell lung", "value": 37.9, "unit": "µM"}, {"measurement": "TGI", "setting": "DMS 273 small cell lung", "value": 51.8, "unit": "µM"}, {"measurement": "TGI", "setting": "HCC-2998 colon", "value": 37.8, "unit": "µM"}, {"measurement": "TGI", "setting": "KM20L2 colon", "value": 30.5, "unit": "µM"}, {"measurement": "TGI", "setting": "MOLT-4 leukemia", "value": 48.9, "unit": "µM"}, {"measurement": "TGI", "setting": "SF-539 CNS", "value": "> 100", "unit": "µM"}, {"measurement": "TGI", "setting": "SW-620 colon", "value": "> 100", "unit": "µM"}, {"measurement": "TGI", "setting": "XF 498 CNS", "value": 68.6, "unit": "µM"}]}]}
